According to PMC10587081, “Biochemical and structural basis of mercuric reductase, GbsMerA, from Gelidibacter salicanalis PAMC21136” (Scientific Reports, 2023):
Each block holds one compound with its values, some of them ahead of it.

What was measured:
GbsMerA = molecular target: T1, GbsMerA (Gelidibacter salicanalis, UniProt A0A934NG65); experiment: X-ray crystal structure; type: binding
T1 construct: gene JEM65_00875; full length, 449 aa, pET32a(+) (BamHI/XhoI), N-terminal His6 tag and vector tag cleaved with enterokinase, E. coli BL21, SEC, homodimer with non-covalent FAD; no NmerA domain and no C-terminal Cys-Cys motif; primers encode N-terminus MKEYDV and C-terminus IPHML
T1 sequence (A0A934NG65 1-448): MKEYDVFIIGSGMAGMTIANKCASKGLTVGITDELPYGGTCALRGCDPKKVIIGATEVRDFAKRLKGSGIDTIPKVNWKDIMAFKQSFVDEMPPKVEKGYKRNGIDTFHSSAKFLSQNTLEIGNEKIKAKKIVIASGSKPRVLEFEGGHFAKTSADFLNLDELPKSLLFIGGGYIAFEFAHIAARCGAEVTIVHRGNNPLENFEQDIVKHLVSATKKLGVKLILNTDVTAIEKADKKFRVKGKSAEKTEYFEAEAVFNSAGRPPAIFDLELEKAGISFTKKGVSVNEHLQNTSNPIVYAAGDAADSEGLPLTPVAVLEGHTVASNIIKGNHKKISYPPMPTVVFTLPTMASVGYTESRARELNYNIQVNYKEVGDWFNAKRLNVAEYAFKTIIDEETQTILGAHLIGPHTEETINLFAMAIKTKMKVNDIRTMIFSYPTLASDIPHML

[1] = molecular target: mercuric reductase GbsMerA from Gelidibacter salicanalis PAMC21136 (Gelidibacter salicanalis PAMC21136); experiment: crystal structure; sitting drop vapor diffusion at 22 °C; GbsMerA 35 mg/mL with 1.6 M sodium phosphate monobasic/0.4 M potassium phosphate dibasic, 0.1 M sodium phosphate dibasic/citric acid pH 4.2; homodimer in the asymmetric unit

Compound: Cc1cc2nc3c(=O)[nH]c(=O)nc-3n(C[C@H](O)[C@H](O)[C@H](O)COP(=O)(O)OP(=O)(O)OC[C@H]3O[C@@H](n4cnc5c(N)ncnc54)[C@H](O)[C@@H]3O)c2cc1C [FAD]
X-ray crystal structure (GbsMerA; 2.6 Å, non-covalently bound FAD in FAD-binding domain, crystallised at pH 4.2 (phosphate/citrate)): Non-covalently bound FAD is located in the central region of the FAD-binding domain

Compound: NC(=O)C1=CN([C@@H]2O[C@H](COP(=O)(O)OP(=O)(O)OC[C@H]3O[C@@H](n4cnc5c(N)ncnc54)[C@H](OP(=O)(O)O)[C@@H]3O)[C@@H](O)[C@H]2O)C=CC1 [NADPH]
X-ray crystal structure (GbsMerA; complex with FAD and NADPH, bicine/Trizma pH 8.5, re-face of the FAD isoalloxazine ring): Furthermore, we determined the GbsMerA–NADPH complex structure.

stoichiometry N [1]: 2
Compound: mercuric reductase GbsMerA from Gelidibacter salicanalis PAMC21136 (enzyme)
